This experiment relates to BDF1 mice, P388 leukemia ip, median survival T/C. Kind of experiment: NCI In Vivo Anticancer Drug Screen. Data for tumor model P388 Leukemia (intraperitoneal) in B6D2F1 (BDF1) mice. To be noted: endpoint: median survival time, higher = longer survival. In outline:
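Transplantable tumour in mice; compound vs vehicle dosing; survival scored; ratio of treated to control reported.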

The mark [1] stands for this setting: dose: 100.0 mg/kg/injection, schedule: Q01DX009 (ip), vehicle: saline with Tween-80.
Setting [2] is: dose: 100.0 mg/kg/injection, schedule: Q01DX009 (ip), vehicle: Klucel (hydroxypropylcellulose) (HPC).
The mark [3] stands for this setting: dose: 400.0 mg/kg/injection, schedule: Q01DX009 (ip), vehicle: Klucel (hydroxypropylcellulose) (HPC).
Where [4] appears, read: dose: 400.0 mg/kg/injection, schedule: Q04DX003 (ip), vehicle: Klucel (hydroxypropylcellulose) (HPC).
The mark [5] stands for this setting: dose: 50.0 mg/kg/injection, schedule: Q04DX003 (ip), vehicle: saline with Tween-80.
[6] abbreviates: dose: 100.0 mg/kg/injection, schedule: Q04DX003 (ip), vehicle: saline with Tween-80.
Setting [7] is: dose: 200.0 mg/kg/injection, schedule: Q04DX003 (ip), vehicle: saline with Tween-80.
Setting [8] is: dose: 100.0 mg/kg/injection, schedule: Q04DX003 (ip), vehicle: other.
Where [9] appears, read: dose: 200.0 mg/kg/injection, schedule: Q04DX003 (ip), vehicle: other.
The mark [10] stands for this setting: dose: 400.0 mg/kg/injection, schedule: Q04DX003 (ip), vehicle: other.

“And” between values parts separate entries of the source, which are not always exact repeats. Equal values may be shown once. Inconclusive results and toxic doses are left out.

Consider `Clc1ccc(-c2cc(=[N+]3CCOCC3)ss2)cc1`, for which the T/C was 118 % of control (dose: 12.5 mg/kg/injection, schedule: Q01DX009 (ip), vehicle: water); 102 % of control (dose: 25.0 mg/kg/injection, schedule: Q01DX009 (ip), vehicle: water); 94 % of control (dose: 25.0 mg/kg/injection, schedule: Q04DX003 (ip), vehicle: water); 111 % of control (dose: 50.0 mg/kg/injection, schedule: Q01DX009 (ip), vehicle: water); 100 % of control (dose: 50.0 mg/kg/injection, schedule: Q04DX003 (ip), vehicle: water); 111 % of control (dose: 100.0 mg/kg/injection, schedule: Q01DX009 (ip), vehicle: water). In addition, the T/C is 90 % of control (dose: 100.0 mg/kg/injection, schedule: Q04DX003 (ip), vehicle: water) and 110 % of control (dose: 200.0 mg/kg/injection, schedule: Q04DX003 (ip), vehicle: water).
As to `COc1cccc(S(=O)(=O)c2ccc([N+](=O)[O-])c3nonc23)c1`, the T/C by setting is: (dose: 12.5 mg/kg/injection, schedule: Q01DX009 (ip), vehicle: saline with Tween-80) 111 % of control; (dose: 25.0 mg/kg/injection, schedule: Q01DX009 (ip), vehicle: saline with Tween-80) 111 % of control.
Regarding `O=C(N[C@H](CO)[C@H](O)c1ccc([N+](=O)[O-])cc1)C(Cl)Cl`, under setting [1], the T/C was 118 % of control.
`CCCCCCCCCCCCCSCCCCCCCCSCCCCCCCCCCCCC`: the T/C is 95 % of control (dose: 100.0 mg/kg/injection, schedule: Q01DX001 (ip), vehicle: saline with Tween-80); 90 % of control (dose: 200.0 mg/kg/injection, schedule: Q01DX001 (ip), vehicle: saline with Tween-80); 100 % of control (dose: 400.0 mg/kg/injection, schedule: Q01DX001 (ip), vehicle: saline with Tween-80).
In the case of `COc1ccc2c(C(=O)CCC(=O)O)cccc2c1`, the T/C reads like this: (dose: 100.0 mg/kg/injection, schedule: Q01DX001 (ip), vehicle: saline) 100 % of control; (dose: 200.0 mg/kg/injection, schedule: Q01DX001 (ip), vehicle: saline) 100 % of control; (dose: 400.0 mg/kg/injection, schedule: Q01DX001 (ip), vehicle: saline) 100 % of control.
With `CC1CC2C(CC1=O)C(C)(C)CCC2(C)C` (stereo not drawn), the T/C runs as follows: under setting [2], 109 % of control; (dose: 200.0 mg/kg/injection, schedule: Q01DX009 (ip), vehicle: Klucel (hydroxypropylcellulose) (HPC)) 104 % of control; (dose: 264.0 mg/kg/injection, schedule: Q04DX003 (ip), vehicle: Klucel (hydroxypropylcellulose) (HPC)) 104 % of control and 109 % of control; under setting [3], 86 % of control; under setting [4], 104 % of control.
For the molecule `Nc1ccccc1C(=O)OCCc1ccccc1`, the T/C runs as follows: under setting [2], 100 % of control; (dose: 100.0 mg/kg/injection, schedule: Q04DX003 (ip), vehicle: Klucel (hydroxypropylcellulose) (HPC)) 95 % of control; (dose: 200.0 mg/kg/injection, schedule: Q04DX003 (ip), vehicle: Klucel (hydroxypropylcellulose) (HPC)) 91 % of control; (dose: 266.0 mg/kg/injection, schedule: Q01DX009 (ip), vehicle: Klucel (hydroxypropylcellulose) (HPC)) 94 % of control; under setting [3], 110 % of control; under setting [4], 95 % of control. Moreover, the T/C (dose: 600.0 mg/kg/injection, schedule: Q01DX009 (ip), vehicle: Klucel (hydroxypropylcellulose) (HPC)) was 100 % of control.
Consider `COc1ccc(NC(=O)N(CCCl)N=O)cc1OC`, for which the T/C reads like this: (dose: 0.29 mg/kg/injection, schedule: Q04DX003 (ip), vehicle: saline with Tween-80) 107 % of control; (dose: 0.44 mg/kg/injection, schedule: Q04DX003 (ip), vehicle: saline with Tween-80) 110 % of control; (dose: 0.66 mg/kg/injection, schedule: Q04DX003 (ip), vehicle: saline with Tween-80) 122 % of control; (dose: 0.79 mg/kg/injection, schedule: Q01DX009 (ip), vehicle: saline with Tween-80) 174 % of control; (dose: 1.19 mg/kg/injection, schedule: Q01DX009 (ip), vehicle: saline with Tween-80) 185 % of control; (dose: 1.78 mg/kg/injection, schedule: Q01DX009 (ip), vehicle: saline with Tween-80) 186 % of control. The T/C is, setting by setting: (dose: 2.2 mg/kg/injection, schedule: Q04DX003 (ip), vehicle: saline with Tween-80) 172 % of control; (dose: 2.66 mg/kg/injection, schedule: Q01DX009 (ip), vehicle: saline with Tween-80) 161 % of control and 194 % of control; (dose: 3.3 mg/kg/injection, schedule: Q04DX003 (ip), vehicle: saline with Tween-80) 190 % of control; (dose: 4.0 mg/kg/injection, schedule: Q01DX009 (ip), vehicle: saline with Tween-80) 169 % of control; (dose: 5.0 mg/kg/injection, schedule: Q04DX003 (ip), vehicle: saline with Tween-80) 186 % of control; (dose: 5.5 mg/kg/injection, schedule: Q04DX003 (ip), vehicle: saline with Tween-80) 218 % of control. In addition, the T/C runs as follows: (dose: 6.0 mg/kg/injection, schedule: Q01DX009 (ip), vehicle: saline with Tween-80) 169 % of control; (dose: 7.5 mg/kg/injection, schedule: Q04DX003 (ip), vehicle: saline with Tween-80) 209 % of control; (dose: 8.3 mg/kg/injection, schedule: Q04DX003 (ip), vehicle: saline with Tween-80) 209 % of control; (dose: 9.0 mg/kg/injection, schedule: Q01DX009 (ip), vehicle: saline with Tween-80) 260 % of control; (dose: 12.5 mg/kg/injection, schedule: Q04DX003 (ip), vehicle: saline with Tween-80) 236 % of control; (dose: 18.7 mg/kg/injection, schedule: Q04DX003 (ip), vehicle: saline with Tween-80) 281 % of control.
Consider `Cc1cc(N(C)C)ccc1/C=C/c1ccnc2ccccc12`, for which the T/C reads like this: (dose: 100.0 mg/kg/injection, schedule: Q04DX002 (ip), vehicle: saline with Tween-80) 117 % of control; (dose: 200.0 mg/kg/injection, schedule: Q04DX002 (ip), vehicle: saline with Tween-80) 107 % of control.
`c1cnc2c3c(ccc2c1)CN(C1CCCCC1)CO3`: the T/C runs as follows: under setting [5], 104 % of control; under setting [6], 104 % of control; under setting [7], 90 % of control.
Turning to `CC1(c2cccc([N+](=O)[O-])c2)OCCO1`, the T/C is 109 % of control (dose: 100.0 mg/kg/injection, schedule: Q01DX009 (ip), vehicle: other); 100 % of control under setting [8]; 100 % of control (dose: 200.0 mg/kg/injection, schedule: Q01DX009 (ip), vehicle: other); 95 % of control under setting [9]; 100 % of control (dose: 400.0 mg/kg/injection, schedule: Q01DX009 (ip), vehicle: other); 91 % of control under setting [10].
As for `Cc1nc2ccccc2nc1CC(O)(c1ccccc1)c1cccc2ccccc12` (stereo not drawn), the T/C runs as follows: (dose: 50.0 mg/kg/injection, schedule: Q01DX009 (ip), vehicle: saline with Tween-80) 94 % of control; under setting [1], 95 % of control; (dose: 200.0 mg/kg/injection, schedule: Q01DX009 (ip), vehicle: saline with Tween-80) 97 % of control.
`c1ccc(COCC[P+](c2ccccc2)(c2ccccc2)c2ccccc2)cc1`: the T/C is, setting by setting: (dose: 2.5 mg/kg/injection, schedule: Q01DX010 (ip), vehicle: saline) 90 % of control; (dose: 5.0 mg/kg/injection, schedule: Q01DX010 (ip), vehicle: saline) 100 % of control; (dose: 10.0 mg/kg/injection, schedule: Q01DX010 (ip), vehicle: saline) 113 % of control.
In the case of `Cc1c(Cl)cccc1NC(=O)COc1ccc(Cl)cc1Cl`, the T/C is 108 % of control under setting [6]; 87 % of control under setting [7]; 95 % of control (dose: 400.0 mg/kg/injection, schedule: Q04DX003 (ip), vehicle: saline with Tween-80).
Consider `C/C(=N/O)[c-]1[c-][c-][c-][c-]1.[Fe].[c-]1[c-][c-][cH-][c-]1`, for which the T/C was 100 % of control (dose: 25.0 mg/kg/injection, schedule: Q04DX003 (ip), vehicle: saline with Tween-80); 109 % of control under setting [5]; 109 % of control under setting [6].
As for `CC(C(O)c1ccc(Br)cc1)C(O)(C(F)(F)F)C(F)(F)F` (stereo not drawn), the T/C reads like this: under setting [8], 100 % of control; under setting [9], 100 % of control; under setting [10], 100 % of control.

Values taken from PubChem BioAssay AID328 (DTP/NCI, 2004).
